pEC50: −log10 of the molar value.

The experiment deals with T1, human recombinant OX2 (hOX2) receptor (Homo sapiens, UniProt O43614).
T1 construct: host or cells: CHO cells
T1 sequence (O43614 1-444): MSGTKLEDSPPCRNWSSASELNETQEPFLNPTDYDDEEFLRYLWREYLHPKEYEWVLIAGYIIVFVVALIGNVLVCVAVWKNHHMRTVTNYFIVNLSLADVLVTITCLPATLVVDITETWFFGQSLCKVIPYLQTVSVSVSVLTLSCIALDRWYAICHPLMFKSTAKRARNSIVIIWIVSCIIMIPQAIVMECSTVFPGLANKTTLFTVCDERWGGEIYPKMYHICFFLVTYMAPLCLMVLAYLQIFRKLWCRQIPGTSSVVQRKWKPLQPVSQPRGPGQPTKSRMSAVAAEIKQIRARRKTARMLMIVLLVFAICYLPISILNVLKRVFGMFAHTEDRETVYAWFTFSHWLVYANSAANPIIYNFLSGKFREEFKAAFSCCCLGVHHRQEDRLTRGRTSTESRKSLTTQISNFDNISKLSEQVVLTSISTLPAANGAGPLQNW
Briefly: IP-1 accumulation assay (IP-One HTRF) in hOX2-CHO cells. The class given is cell-based. The following applies: 60 min at 37° C., mean of at least two independent experiments, read-out: EC50_OX2R Category. As for the experimental part:
Example 94: IP-1 Accumulation Assay
The accumulation of Inositol-1 Monophosphate (IP-1) was measured using IP-One HTRF® Terbium cryptate based assay (Cisbio) in human recombinant OX1 (hOX1) and at OX2 (hOX2) receptors expressed in CHO cells (DiscoverX) according to the manufacturer's instructions for cells tested in suspension.
hOX1-CHO and hOX2-CHO cells were seeded into white 384-well plates at a density of 20,000 cells/well in Hank's Balanced Salt Solution (HBSS) containing 20 mM HEPES pH 7.4, 50 mM, LiCl and 0.1% and Bovine Serum Albumin (BSA).
Compounds of the present disclosure were tested in a 11 points concentration response curve (CRC) serially diluted in neat DMSO at 200 fold concentrations and added by Echo acoustic liquid handling (Labcyte) to the cells (0.5% DMSO final in the assay). After 60 min of incubation at 37° C. detection reagents, IP1-d2 tracer and anti-IP1-cryptate were diluted in lysis buffer according to the manufacturer's descriptions and added to the cells.
Following 60 mi incubation at room temperature, time-resolved fluorescence (HTRF) was measured at 615 nm and 665 nm by Envision Multilabel reader (Perkin Elmer) and the HTRF ratio (A665/A615×10^4) was calculated.
The IP-1 accumulation response was expressed as percentage of the maximal OX-A response.
Curve fitting and EC50 estimations were carried out using a four-parameter logistic model using XLfit Software. Mean data of EC50 are calculated from at least two independent experiments performed in duplicates.
On the technique in general: Time-resolved FRET reads energy transfer from a long-lived donor to a nearby acceptor.

For the compound `CCNC(=O)N1CCC[C@@]2(COC(C)C(=O)N2)[C@@H]1CO[C@H]1CC[C@@H](c2ccccc2)CC1` (single isomer, unassigned) [Example 40], the pEC50 is above 7.00.

With `CCNC(=O)N1CCC[C@@]2(CCCC(=O)N2)[C@@H]1CO[C@H]1CC[C@@H](c2ccccc2)CC1` (single isomer, unassigned) [Example 35], the pEC50 was above 7.00.

Take `COC(=O)N1CCCC2(CCOC(=O)N2)C1Cc1cccc(-c2ccccc2)c1` (stereo not drawn) [Example 19, Methyl 7-({[1,1′-biphenyl]-3-yl}methyl)-2-oxo-3-oxa-1,8-diazaspiro[5.5]undecane-8-carboxylate]: the pEC50 was below 5.00.

With `CCNC(=O)N1CCC[C@@]2(CNS(=O)(=O)N2)[C@@H]1Cc1cccc(-c2ccccc2)c1` (racemic) [Example 30, (CIS)-6-({[1,1′-biphenyl]-3-yl}methyl)-N-ethyl-2,2-dioxo-2λ^6-thia-1,3,7-triazaspiro[4.5]decane-7-carboxamide], the pEC50 was below 5.00.

As for `O=C1COC[C@]2(CCCN(C(=O)C3CC3)[C@@H]2CO[C@H]2CC[C@@H](c3ccccc3)CC2)N1` (single isomer, unassigned) [Example 8], the pEC50 was below 5.00.

As for `CCNC(=O)N1[C@H](C)C[C@@]2(COCC(=O)N2)[C@@H]1Cc1cccc(-c2cc(F)cc(F)c2)c1F` [Example 53, (1S,3R,5S)-N-ethyl-3-methyl-7-oxo-1-({2,3′,5′-trifluoro-[1,1′-biphenyl]-3-yl}methyl)-9-oxa-2,6-diazaspiro[4.5]decane-2-carboxamide], the pEC50 was above 7.00.

On to `CCN(C)C(=O)N1[C@H](C)C[C@@]2(COCC(=O)N2)[C@@H]1Cc1cccc(-c2cc(F)cc(F)c2)c1F` [Example 87, (1S,3R,5S)-N-ethyl-N,3-dimethyl-7-oxo-1-({2,3′,5′-trifluoro-[1,1′-biphenyl]-3-yl}methyl)-9-oxa-2,6-diazaspiro[4.5]decane-2-carboxamide], for which the pEC50 is 6.00 to 7.00.

Consider `COCC(=O)N1[C@H](C)C[C@@]2(COCC(=O)N2)[C@@H]1Cc1cccc(-c2cc(F)cc(F)c2)c1F` [Example 88, (1S,3R,5S)-2-(2-methoxyacetyl)-3-methyl-1-({2,3′,5′-trifluoro-[1,1′-biphenyl]-3-yl}methyl)-9-oxa-2,6-diazaspiro[4.5]decan-7-one], for which the pEC50 was 5.00 to 6.00.

Take `CCNC(=O)N1CCC[C@@]2(COCCC(=O)N2)[C@@H]1CO[C@H]1CC[C@@H](c2ccccc2)CC1` (relative stereo) [Example 55, rel-(1R,6S)-N-ethyl-8-oxo-1-({[(CIS)-4-phenylcyclohexyl]oxy}methyl)-11-oxa-2,7-diazaspiro[5.6]dodecane-2-carboxamide]: the pEC50 was above 7.00.

For `CCNC(=O)N1CCC[C@]2(COCC(=O)N2)[C@H]1CO[C@H]1CC[C@@H](c2ccccc2)CC1` (single isomer, unassigned) [Example 2], the pEC50 was 5.00 to 6.00.

With `COC(=O)N1CCC[C@@]2(CCOC(=O)N2)[C@H]1Cc1cccc(-c2ccccc2)c1` (single isomer, unassigned) [Example 23], the pEC50 is below 5.00.

For `C[C@@H]1C[C@@]2(COCC(=O)N2)[C@H](Cc2cccc(-c3cc(F)cc(F)c3)c2F)N1C(=O)OCC(F)F` [Example 83, 2,2-difluoroethyl (1S,3R,5S)-3-methyl-7-oxo-1-({2,3′,5′-trifluoro-[1,1′-biphenyl]-3-yl}methyl)-9-oxa-2,6-diazaspiro[4.5]decane-2-carboxylate], the pEC50 was 6.00 to 7.00.

`CCNC(=O)N1CC[C@]2(COCC(=O)N2)[C@H]1CO[C@H]1CC[C@@H](c2ccccc2)CC1` (single isomer, unassigned) [Example 17]: the pEC50 is below 5.00.

Consider `C[C@@H]1C[C@@]2(COCC(=O)N2)[C@H](CO[C@H]2CC[C@@H](c3ccccc3)CC2)N1C(=O)C1CCC1` [Example 58, (1R,3R,5S)-2-cyclobutanecarbonyl-3-methyl-1-({[(CIS)-4-phenylcyclohexyl]oxy}methyl)-9-oxa-2,6-diazaspiro [4.5]decan-7-one], for which the pEC50 was above 7.00.

Consider `CCNC(=O)N1CCCC2(CCCS(=O)(=O)N2)C1CO[C@H]1CC[C@@H](c2ccccc2)CC1` (mixture of isomers) [Example 37, rel-(6R,7R)-N-ethyl-2,2-dioxo-7-({[(CIS)-4-phenylcyclohexyl]oxy}methyl)-2λ^6-thia-1,8-diazaspiro[5.5] undecane-8-carboxamide], for which the pEC50 is 6.00 to 7.00.

`COc1cccnc1N1[C@H](C)C[C@@]2(COCC(=O)N2)[C@@H]1CO[C@H]1CC[C@@H](c2ccccc2)CC1` [Example 63, (1R,3R,5S)-2-(3-methoxypyridin-2-yl)-3-methyl-1-({[(CIS)-4-phenylcyclohexyl]oxy}methyl)-9-oxa-2,6-diazaspiro[4.5]decan-7-one]: the pEC50 is 6.00 to 7.00.

With `C[C@@H]1C[C@@]2(COCC(=O)N2)[C@H](CO[C@H]2CC[C@@H](c3ccccc3)CC2)N1C(=O)OCC(F)F` [Example 61, 2,2-difluoroethyl (1R,3R,5S)-3-methyl-7-oxo-1-({[(CIS)-4-phenylcyclohexyl]oxy}methyl)-9-oxa-2,6-diazaspiro [4.5]decane-2-carboxylate], the pEC50 was above 7.00.

For the compound `O=C1N[C@@]2(CCCN(C(=O)[C@H]3C[C@@H](F)C3)[C@@H]2CO[C@H]2CC[C@@H](c3ccccc3)CC2)CCO1` (single isomer, unassigned) [Example 67], the pEC50 was below 5.00.

`CCNC(=O)N1CCCC2(COC(F)C(=O)N2)C1CO[C@H]1CC[C@@H](c2ccccc2)CC1` (relative stereo) [Example 41, rel-(6S,7R)-N-ethyl-3-fluoro-2-oxo-7-({[(CIS)-4-phenylcyclohexyl]oxy}methyl)-4-oxa-1,8-diazaspiro[5.5] undecane-8-carboxamide]: the pEC50 was above 7.00.

Take `CCNC(=O)N1CCC[C@@]2(COC(F)C(=O)N2)[C@@H]1CO[C@H]1CC[C@@H](c2ccccc2)CC1` (single isomer, unassigned) [Example 43]: the pEC50 is above 7.00.

`C[C@@H]1C[C@@]2(COCC(=O)N2)[C@H](CO[C@H]2CC[C@@H](c3ccccc3)CC2)N1C(=O)[C@H]1C[C@@H](F)C1` [Example 59, (1R,3R,5S)-3-methyl-2-[(1s,3s)-3-fluorocyclobutanecarbonyl]-1-({[(CIS)-4-phenylcyclohexyl]oxy}methyl)-9-oxa-2,6-diazaspiro[4.5]decan-7-one]: the pEC50 was above 7.00.

For the compound `COC(=O)N1CCCC2(CCC(=O)N2)C1Cc1cccc(-c2ccccc2)c1` (mixture of isomers) [Example 28, Methyl 6-({[1,1′-biphenyl]-3-yl}methyl)-2-oxo-1,7-diazaspiro[4.5]decane-7-carboxylate], the pEC50 is below 5.00.

On to `COC(=O)N1CCC[C@@]2(COC(=O)N2)[C@@H]1Cc1cccc(-c2ccccc2)c1` [Example 29, Methyl (5S,6S)-6-({[1,1′-biphenyl]-3-yl}methyl)-2-oxo-3-oxa-1,7-diazaspiro[4.5]decane-7-carboxylate], for which the pEC50 was below 5.00.

With `CN1CC(=O)NC2(CCCN(C(=O)OCC(F)F)C2CO[C@H]2CC[C@@H](c3ccccc3)CC2)C1` (mixture of isomers) [Example 56, 2,2-difluoroethyl-rel-(6R,7R)-4-methyl-2-oxo-7-({[(CIS)-4-phenylcyclohexyl]oxy}methyl)-1,4,8-triazaspiro [5.5]undecane-8-carboxylate], the pEC50 was 6.00 to 7.00.

Source of the values: patent US20240254143A1, “OREXIN RECEPTOR AGONISTS AND USES THEREOF” (JAZZ PHARMACEUTICALS IRELAND LIMITED, priority 2021, published 2024).
